Measurements from patent US6555547B1, “Method for treating a patient with neoplasia by treatment with a vinca alkaloid derivative” (Cell Pathways, Inc., priority 2000, dated 2003).
“Also recorded” adds a separate entry of the source.

Columns and labels:
[1] = biological target: T1, cGMP binding sites of GST-cGB-PDE5 fusion protein (Homo sapiens, UniProt O76074); assay: cGMP binding assay; conditions: 3H-cGMP 2 μM
T1 construct: made in house; host or cells: E. coli BL21 (DE3)

[2] = test system: Peak B from SW480, HTB-26, and LnCAP; assay: Peak B cGMP PDE activity from SW480, HTB-26 and LnCAP (FPLC); assay type: biochemical; conditions: 100 nM; Peak B from SW480, HTB-26, LnCAP
Procedure: The novel Peak B was also isolated from two other neoplastic cell lines, a breast cancer cell line, HTB-26, and a prostate cancer cell line, LnCAP, by a procedure similar to the one above used to isolate it from SW480. The protocol was modified in several respects. To provide even greater reproducibility to allow comparison of different cell lines, a Pharmacia AKTA FPLC was used to control sample loading and elution on an 18 mL DEAE TrisAcryl M column. SW840 was run by this same procedure multiple times to provide a reference of Peak B. 200-400 million cells of SW480 were used for the profiles. 70 million cells of LnCAP were used for a profile (see FIGS. 22 and 23), and in a separate experiment 32 million cells of HTB-26 were used for a profile (see FIGS. 20 and 21). After re-suspending cells in homogenization buffer, samples were manually homogenized. FPLC buffer A was 8 mM TRIS-acetate, 5 mM Mg acetate, 0.1 mM EDTA, pH 7.5 and buffer B was 8 mM TRIS-acetate, 5 mM Mg acetate, 0.1 mM EDTA, 1 M Na acetate, pH 7.5. Supernatants were loaded onto the column at 1 mL per minute, followed by a wash with 60 mL buffer A at 1 mL per minute. A gradient was run from 0-15% buffer B in 60 mL, 15-50% buffer B in 60 mL, and 50-100% buffer B in 16 mL. During the gradient 1.5 mL fractions were collected.

[3] = test system: PrEC primary prostate epithelial cell cultures; assay: Histone-associated DNA fragmentation in normal prostate epithelial cells; assay type: cell-based; conditions: 50 μM, up to 4 days
Procedure: (§1) The androgen-sensitive prostate tumor cell line, LNCaP (from ATCC (Rockville, Md.)) was propagated under standard conditions using […] medium containing 5% fetal calve serum and 2 mM glutamine. Primary prostate epithelial cell cultures (PrEC) derived from normal prostate (from Clonetics Inc. (San Diego, Calif.)) were grown under the same conditions as the tumor cell line except a serum-free medium optimized for the growth of such cultures was used (Clonetics Inc). For the experiments, LNCaP or PrEC cells were seeded in 96 well plates at a density of 10,000 cells per well. After 24 hours, the cells were treated with either vehicle (0.1% DMSO) or 50 μM Compound I (free base) solubilized in DMSO. After various drug treatment times (4, 24, 48, 72, or 99 hours) the cells were lysed and processed for measurement of histone-associated DNA as an indicator of apoptotic cell death (see, Piazza et al., Cancer Research 57: 2452-2459, 1997).

[4] = Acute toxicity study in rats; assay type: in vivo
[5] = rat, in vivo, 2000 mg/kg/day
[6] = Toxicity study in dogs (capsules); assay type: in vivo
[7] = test system: LNCaP prostate tumor cell line; assay: Histone-associated DNA fragmentation in prostate tumor cells; assay type: cell-based; conditions: 50 μM, up to 4 days, free base
Procedure: as §1, with “After 24 hours, the cells were treated with either vehicle (0.1% DMSO) or 50 μM Compound I (free base) solubilized in DMSO.” left out

[8] = test system: H460 large cell carcinoma cell line; assay: Cell growth, alone and in combination with vinca alkaloid; assay type: cell-based, human
Procedure: (§2) Exisulind and Compound I were analyzed using two human lung cancer cell lines; H460, a large cell carcinoma with a doubling time of 16 hours, and Calu-6, an adenocarcinoma with a doubling time of 21 hours. Exisulind and Compound I were analyzed alone and in combination with the vinca alkaloid, Navelbine™ vinorelbine. The cytotoxic agents were administered for 1 hour, while exisulind and Compound I were administered for either 1 hour or given as a continuous exposure.
(§3) Cells were plated on day 0 and allowed to attach. On day 1, the cells were exposed to one of the cytotoxic agents dissolved in media pre-warmed to 37° C. and incubated at 37° C. for 1 hour. The cells were then washed twice and re-fed pre-warned media with or without either exisulind or Compound I and incubated for one hour at 37° C. After the one-hour incubation, the cells were washed twice, re-fed, and returned to the incubator; the continuous exposure cultures were not washed and re-fed. Appropriate controls were included for each condition. […] All data points were done in triplicate and the mean graphed as a percent of control growth.
(§4) Exisulind and Compound I were first dissolved in DMSO and brought to the desired concentrations by slowly adding warm media to the drug-DMSO solution to prevent precipitation.

[9] = test system: Calu-6 adenocarcinoma cell line; assay: as above; assay type: cell-based, human; conditions: for Lower concentration required on continuous exposure than 1-hour exposure for same effect: FIGS. 28-29, 32-33; for Effect when combined with vinca alkaloid: both cell lines (Calu-6, H460), 1-hour and continuous exposures
Procedure: as §2, §3, §4

[10] = in vivo
[11] = Seven-day dose-range finding study in rats; assay type: in vivo
[12] = test system: β-catenin and PKG in SW480 cells; assay: Western blot of β-catenin and PKG in SW480 cells; assay type: cell-based, human; conditions: SW480, 48 hours
Procedure: SW480 cells treated with exisulind as described previously are harvested from the microfuge tubes by rinsing once with ice-cold PBS. The cells are lysed by modified RIPA buffer for 15 minutes with agitation. The cell lysate is spun down in a cold room. The supernatants are transferred to fresh microcentrifuge tubes immediately after spinning. BioRad DC Protein Assay (Temecula, Calif.) is performed to determine the protein concentrations in samples. The samples are normalized for protein concentration, as described above.
50 μg of each sample is loaded onto a 10% SDS gel. SDS-PAGE is performed, and the proteins then are transferred to a nitrocellulose membrane. The blotted nitrocellulose membrane is blocked in freshly prepared TBST containing 5% nonfat dry milk for one hour at room temperature with constant agitation.
A goat-anti-PKG primary antibody is diluted to the recommended concentration/dilution in fresh TBST/5% nonfat dry milk. The nitrocellulose membrane is placed in the primary antibody solution and incubated one hour at room temperature with agitation. The nitrocellulose membrane is washed three times for ten minutes each with TBST. […]
This observation was made by culturing SW480 cells with either 200, 400 or 600 μM exisulind or vehicle (0.1% DMSO). […] Immuno-reactive protein can be detected by Western blot. […]

[13] = test system: PKG activity in HCT116 colon cancer cells; assay: PKG assay on lysates of drug-treated HCT116 cells; assay type: cell-based
Description: To test the effect of cGMP-specific PDE inhibition on neoplasia containing the β-catenin mutation, HCT116 colon cancer cells were employed. HCT116 is known to contain the β-catenin mutation, but is known not to contain the APC mutation.
The same procedure is used to grow the HCT116 cells as is used in the SW480 procedure described above. In this experiment, only exisulind and controls were used.

[14] = Side effects of exisulind in patients; assay type: in vivo
Description: This effect is reversible, and liver enzymes return to normal levels when the administered dose of exisulind returns to the traditionally recommended level or when treatment is discontinued. The most serious side effects of vinca alkaloid derivatives, on the other hand, are myelosuppressions.

T1 sequence (O76074 46-539 limits assumed): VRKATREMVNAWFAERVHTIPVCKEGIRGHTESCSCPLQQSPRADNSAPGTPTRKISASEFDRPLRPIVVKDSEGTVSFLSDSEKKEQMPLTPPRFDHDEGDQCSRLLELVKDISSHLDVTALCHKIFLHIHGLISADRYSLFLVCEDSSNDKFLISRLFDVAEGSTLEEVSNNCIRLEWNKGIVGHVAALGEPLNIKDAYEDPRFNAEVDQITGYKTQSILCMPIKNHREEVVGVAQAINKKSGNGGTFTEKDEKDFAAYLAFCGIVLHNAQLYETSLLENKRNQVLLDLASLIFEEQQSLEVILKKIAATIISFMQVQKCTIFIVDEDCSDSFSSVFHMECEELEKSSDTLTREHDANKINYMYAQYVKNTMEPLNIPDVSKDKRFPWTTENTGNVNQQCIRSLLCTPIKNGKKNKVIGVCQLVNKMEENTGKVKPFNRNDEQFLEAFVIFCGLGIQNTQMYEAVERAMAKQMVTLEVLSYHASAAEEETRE

## O=C(O)C1CCN(c2nc(NCc3ccc4c(c3)OCO4)c3cc(Cl)ccc3n2)CC1 [Compound E4021]
[1]
  Competition with cGMP for binding of GST-cGB-PDE5: do not bind to the cGMP binding sites of PDE5
[2]
  Sensitivity of Peak B cGMP PDE activity: resistant

## CC1=C(CC(=O)NCc2ccccc2)c2cc(F)ccc2/C1=C\c1ccncc1.Cl [Compound I, (Z)-5-fluoro-2-methyl-(4-pyridylidene)-3-(N-benzyl)indenylacetamide hydrochloride]
[3]
  DNA fragmentation: did not affect DNA fragmentation for up to 4 days of treatment
[4]
  intraperitoneal LD50: greater than 1000 mg/kg
  oral LD50: > 4000 mg/kg
[4]; intraperitoneal, 1000 mg/kg
  Acute toxicity, single intraperitoneal dose: reduced body weight gain, with mesenteric adhesions seen in some animals
[4]; oral, 4000 mg/kg
  Acute toxicity, single oral dose: body weight gains were slightly reduced
[4]; oral, up to and including 2000 mg/kg
  Acute toxicity, single oral doses: no observable signs of toxicity
[5]
  28-day histopathological evaluation: traces of follicular cell hypertrophy, increased numbers of mitotic figures (suggestive of possible cell proliferation) in the thyroid gland and mild centrilobular hypertrophy in the liver
  28-day liver weights: statistically significant increase in liver weights
  28-day thyroid weights: statistically significant increases in thyroid weights
[6]
  oral LD50: greater than 1000 mg/kg
[6]; 1000 mg/kg
  Toxicity, single dose in capsules: no signs of toxicity
[6]; 1000 mg/kg/day
  Drug-related effects, single dose and seven consecutive doses: At no time in either dosing phase were any obvious signs of drug-related effects observed
[7]
  Histone-associated fragmented DNA: A significant increase in fragmented DNA was detected after 24 hours of treatment; also recorded: time-dependent increase in the amount of histone-associated fragmented DNA
[8]
  Strength in inhibiting cell growth relative to exisulind: 80-100 fold
[9]; Calu-6
  Strength in inhibiting cell growth relative to exisulind: 80-100 fold
[9]; Calu-6, 1-hour exposure, 5 mcg/ml
  % of control growth: 47%
[9]
  Lower concentration required on continuous exposure than 1-hour exposure for same effect: 25 fold
  Effect when combined with vinca alkaloid: additive cytotoxic effect
[10]
  Safety: safe in animal studies and in a single, escalating dose human study
[11]; 50 mg/kg/day
  Seven-day toxicity findings: no observable signs of toxicity
[11]; 500 mg/kg/day
  Seven-day toxicity findings: treatment-related effects were limited to an increase in absolute and relative liver weights in female rats
[11]; 2000 mg/kg/day
  Seven-day toxicity findings: labored breathing and/or abnormal respiratory sounds, decreased weights gains and food consumption in male rats, and increased liver weights in female rats
[11]; any dose level
  Seven-day hematology, blood chemistry, microscopic pathology: No hematological or blood chemistry changes nor any microscopic pathology changes

## CC1=C(CC(=O)O)c2cc(F)ccc2/C1=C\c1ccc(S(C)(=O)=O)cc1 [Exisulind, 5-fluoro-2-methyl-1-(p-methylsulfonylbenzylidene)-3-indenylacetic acid]
[12]
  β-catenin and PKG levels by Western blot: causes the drop of β-catenin and the increase of PKG
[13]
  PKG activation relative to control: yielded PKG that was phosphorylated to a greater extent than the corresponding controls
[14]; 300-600 mg/day
  Side effects at recommended dose: no significant side effects
[14]; doses higher than the recommended therapeutic levels, reversible
  Side effects above recommended dose: can lead to elevated levels of liver enzymes
[1]
  Competition with cGMP for binding of GST-cGB-PDE5: do not bind to the cGMP binding sites of PDE5
[9]
  Lower concentration required on continuous exposure than 1-hour exposure for same effect: ~10 fold
  Effect when combined with vinca alkaloid: additive cytotoxic effect
[9]; Homo sapiens, Calu-6, 1 h, Calu-6, 1-hour exposure, 400 μg/ml, read-out: % of control growth
  activity at 400 µg/mL: 54%
